This note sets out measurements from patent publication US20090175866A1, “TREATMENT OF B-CELL MALIGNANCIES” (priority 2004, published 2009).

What all share (type): cell-based, human
For one experiment, the system named is UTMC2 cells. The experiment is described as follows: Viability of stimulated UTMC2 myeloma cells (MTT). The settings on record: 100 nM; MTT. The method, then:
(§1) FIG. 2 is a graph showing the viability of human myeloma cell lines in the presence of PRO-001. Viability is reported as the ratio between the optical density (OD) in the presence of FGF±inhibitor and the OD in the absence of FGF.
FIG. 4 is a graph showing viability of UTMC2 cells treated with FGF, IL6 or IGF-1. The dark bars represent stimulated cells treated with a control antibody; the dotted bar represents stimulated cells treated with 5 μg/ml PRO-001; the square-filled bar represents stimulated cells treated with 100 nM PD173074.
Non-transformed rat chondrocyte cell line expressing PGFR3 in an inducible manner (RCJ-FGFR3) has been described previously (Rauchenberger R. et al. J. Biol. Chem. 2003; 278:38194-205). […]
(§2) Cell viability was assessed by 3-(4,5-dimethylthiazol)-2,5-diphenyl tetrazolium (MTT) or (2,3-bis(2-methoxy-4-nitro-5-sulphophenyl)-5-[(phenylamino) carbonyl]-2H-tetrazolium hydroxide (XTT) dye absorbance where indicated. Cells were seeded in 96-well plates at a density of 20,000 (FDCP-1 cells), 5,000 (B9 cells) or 25,000 cells (MM cell lines) per well in culture medium. Cells were incubated in the absence or presence of one of the following cytokines: 10 ng/ml FGF9 and 5 μg/ml heparin, 1% murine IL-6, 50 ng/ml IGF-1 or 50 ng/ml human IL-6 where indicated and increasing concentrations of PRO-001, control antibody (purified human Fab) or 100 nM PD173074. […]

The subject of a further experiment is 8226 cells. The experiment is described as follows: Viability of 8226 myeloma cells (MTT). As to conditions: 100 nM, cells lack FGFR3 expression.
Source text: as §1
(§3) Non-transformed rat chondrocyte cell line expressing PGFR3 in an inducible manner (RCJ-FGFR3) has been described previously (Rauchenberger R. et al. J. Biol. Chem. 2003; 278:38194-205). Cells were maintained in α-Minimum Essential Media supplemented with 15% fetal calf serum (FCS), 2 mM L-Glutamine, 100 U/ml penicillin, 100 μg/ml streptomycin, 600 μg/ml G418 (Gibco BRL, Ontario, Canada), 2 μg/ml Tetracyclin (Sigma, Ontario, Canada), and 50 μg/ml HygromycinB (Gibco BRL). […]
as §2

A further experiment concerns H929 cells. The experiment is described as follows: Viability of H929 myeloma cells (MTT). As to conditions: 100 nM.
Source text: as §1, §3, §2

Molecules are shown by their SMILES.

For `CCN(CC)CCCCNc1ncc2cc(-c3cc(OC)cc(OC)c3)c(NC(=O)NC(C)(C)C)nc2n1` [PD173074, reference compound], the “Inhibition of FGF-stimulated growth of UTMC2” value in the experiment with UTMC2 cells is “Inhibition of FGF-stimulated growth of UTMC2 by PRO-001 was comparable to that induced by PD173074”. For the same compound, the “Cell growth of 8226 cells in the presence of FGF” value in the experiment on 8226 cells is “resistant”. In the experiment with H929 cells, the “Cell growth of H929 cells in the presence of FGF” value was “resistant”.
